Measured values taken from US11471460B2, “Autophagy modulators for use in treating cancer” (The United States of America,as represented by the …, priority 2017, dated 2022).
Entries after “also recorded” stand apart in the source; their conditions may differ.

What was measured:
[1] = test system: human foreskin fibroblasts; experiment: Proliferation/viability of human foreskin fibroblasts; type: cell-based; details: Fibroblast; human foreskin fibroblasts; read-out: EC50
Method: Concentration of each compound in the plate assay is indicated below the compound 1 plate.
(§1) Cells were obtained from the American Type Culture Collection. BORCS5-KO HeLa cells have been described previously. Osteosarcoma U2OS were routinely seeded in 6-well plates (0.5×10^5 cells/well) and cultured in Dulbecco's Modified Eagle's medium supplemented with L-Glutamine, 4.5 g/L Glucose, Sodium Pyruvate, Phenol Red, and either heat-inactivated or normal 10% fetal calf serum at 37° C. in 5% CO2. Approximately 15-19 hours later, the indicated compound was added in 1:1000 dilutions. […] Melanoma A375, embryonic kidney 293T and human foreskin fibroblast Hs27 cells were cultured in the same medium, except that cells were seeded into 12-well plates at 10^3 cells/well.

[2] = Viability of A375 cells after pretreatment, trypan blue exclusion; type: cell-based; details: human, A375 melanoma cells, vehicle 94%, read-out: Viable cells after pretreatment
Source text: Viability was quantified by trypan blue dye exclusion method. The images confirmed the presence of cytoplasmic vacuolization occurred only in the compound 1 treated cells. […] The left flank received cells pretreated with vehicle and the right flank received cells pretreated with compound 1. At 27 days later, mice were photographed, and tumors excised. […] Error bars indicate the SEM for 5 tumors.
To determine whether or not compound 1 could inhibit progression of a tumor that arose from autophagy-dependent cancer cells, melanoma A375 cells were pretreated with either vehicle or compound 1 and then assayed for their ability to produce a tumor. Pretreatment consisted of culturing A375 cells for 8 hours with 10 μM compound 1. The cells were then recovered by trypsinization and their viability confirmed by trypan blue exclusion. […] The cells were then inoculated subcutaneously into the flanks of immuno-compromised mice.

osteosarcoma U2OS cells [3] = experiment: Induction of cytoplasmic vacuoles (enlarged lysosomes) in U2OS cells, light microscopy; type: cell-based, human
Source text: Vehicle is the concentration of DMSO that was introduced by addition of compounds.
(§2) These effects are dependent on the compound selected, its concentration and the length of time cells are exposed to the compound.
Cells were obtained from the American Type Culture Collection. BORCS5-KO HeLa cells have been described previously. Osteosarcoma U2OS were routinely seeded in 6-well plates (0.5×10^5 cells/well) and cultured in Dulbecco's Modified Eagle's medium supplemented with L-Glutamine, 4.5 g/L Glucose, Sodium Pyruvate, Phenol Red, and either heat-inactivated or normal 10% fetal calf serum at 37° C. in 5% CO2. Approximately 15-19 hours later, the indicated compound was added in 1:1000 dilutions. Results were the same using either heat-inactivated or normal fetal calf serum. Melanoma A375, embryonic kidney 293T and human foreskin fibroblast Hs27 cells were cultured in the same medium, except that cells were seeded into 12-well plates at 10^3 cells/well.
Phase contrast photographs were taken on an Olympus CKX41 microscope. Confocal photographs were taken on a Leica TCS-SP5II. For immunofluorescence microscopy, the cells were fixed in 4% paraformaldehyde (Electron Microscopy Sciences, 15714) in PBS for 12 min, permeabilized with 0.2% Triton X-100 in PBS for 10 min, and blocked in 0.2% BSA (Sigma-Aldrich, A7030) in PBS for 30 min at 37° C. For endogenous LC3 staining, cells were permeabilized in methanol for 20 min at −20° C. after the paraformaldehyde fixation. The cells were sequentially incubated with primary antibodies (LAMP1: Developmental Studies Hybridoma Bank; LC3 and LAMTOR4: Cell Signaling Technology; FLAG epitope: Sigma-Aldrich) and secondary antibodies conjugated to Alexa Fluor dyes (Life Technologies) diluted with 0.2% BSA in PBS for 30 min at 37° C. Coverslips were mounted on glass slides using Fluoromount-G (Electron Microscopy Sciences, 17984-24). Cells were imaged using a Zeiss LSM880 with AiryScan confocal microscope (Carl Zeiss AG, Oberkochen, Germany) or a Leica TCS-SP5II. The final composite images were created and properly analyzed for lysosomal size examination using ImageJ (NIH).

melanoma A375 tumors [4] = experiment: Expansion of preformed A375 tumors in inbred nude mice; type: in vivo; details: 20 or 40 mg/kg intraperitoneally each day for 14 days
Method: (A) Melanoma A375 cells were cultured to 80% confluency and then inoculated subcutaneously into both flanks of inbred nude mice. Palpable tumors (˜40-50 mm^3) appeared within 7 days. (B) Either vehicle or 20 or 40 mg of compound 1 per kg of the mouse was injected intraperitoneally each day for a period of 14 days. Compound 1 was dissolved in sunflower seed oil. Tumors were excised on day 21. […] Error bars indicate the SEM for 6 tumors.
To determine whether or not compound 1 could inhibit expansion of a preformed tumor that arose from autophagy-dependent cancer cells, melanoma A375 cells were inoculated into the flanks of immuno-compromised mice and allowed to form a palpable tumor. Mice were then injected intraperitoneally once a day with varying amount of compound 1.

melanoma A375 tumors [5] = experiment: Expansion of preformed A375 tumors in outbred nude mice; type: in vivo
Method: Melanoma A375 cells were inoculated subcutaneously into outbred nude mice on day 0 (broad arrow). Intraperitoneal injections (arrows) of vehicle (open circles), 20 mg compound 1 (grey circles), or 40 mg compound 1/kg (solid circle) of mouse weight were administered daily beginning with day 7 when palpable tumors were present. Each group contained three mice. SEMs are indicated. Error bars indicate the SEM for 6 tumors.
The genetic diversity of human populations is greater than the genetic diversity of inbred animals. Therefore, the experiment in FIG. 20 with inbred nude mice was repeated with outbred nude mice.

melanoma A375 cells = experiment: A375 cell viability (CellTiter-Glo ATP, trypan blue live cells); type: cell-based, human; details: 0.1 μM
Method: To reveal viability, cells were seeded into 96-well plates (1,000 cells/well), and the indicated compound was added the following day. Cells were cultured for four days before quantification of total cellular ATP. […] In separate 12-well plates, attached cells were collected by trypsinization, combined with unattached cells, and stained with trypan blue to identify dead cells. Vehicle was plotted as 0.001 μM compound in order to apply a logarithmic scale. Data were plotted as the mean±SEM for three independent experiments.
as §1

osteosarcoma U2OS cells [6] = experiment: U2OS cell viability (cellular ATP); type: cell-based, human
Source text: as §2

Ill effects on mice (melanoma A375 tumors [4]): no exhibited ill effects
Ill effects on mice (melanoma A375 tumors [5]; mice weighed each day during injections): no visible ill effects
SMILES: C1=Nc2ccccc2/C1=C/NNc1nc(Nc2ccccc2)nc(N2CCOCC2)n1 [compound 1]
EC50 [1]: > 10 µM
viability at 8 h, 10 µM [2]: 92%
Time to detect vacuoles by light microscopy (osteosarcoma U2OS cells [3]; U2OS cells): ≤ 20 min
Variation of the concentration required to induce vacuolization, most potent compared to least potent (osteosarcoma U2OS cells [3]; U2OS cells, compound 1 compared to compound 3): 400 fold
Concentration at which 80% of the cells were vacuolated (osteosarcoma U2OS cells [3]; by 4 hours): 0.01 to 0.1 µM
Concentration to induce LC3-II accumulation, inhibit proliferation or viability relative to concentration to observe vacuolization (osteosarcoma U2OS cells [3]; same U2OS cells): about 30 fold
Expansion of preformed tumors (melanoma A375 tumors [4]; inbred nude mice): inhibited by compound 1 in a dose dependent manner
Expansion of preformed tumors (melanoma A375 tumors [5]; 20 or 40 mg/kg intraperitoneally daily, outbred nude mice): inhibited by compound 1 in a dose dependent manner; also recorded: inhibited growth of tumors
Effect on Melanoma A375 cells (melanoma A375 cells): killed
Efficacy at reducing U2OS viability relative to HCQ or CQ (osteosarcoma U2OS cells [6]): 13 times
